This is an account of results in patent publication US6878722B2, “Substituted cycloalkyl P1′ hepatitis C virus inhibitors” (Bristol-Myers Squibb Company, priority 2002, dated 2005).

The target in assay [1] is T1, porcine pancreatic elastase (PPE) (Sus scrofa, UniProt P00772).
T1 construct: purchased Sigma
The assay is described as follows: Specificity assay, porcine pancreatic elastase. The class given is biochemical. As to conditions: 2 hr pre-incubation. As to the method: (§1) The specificities of compounds of the present invention were determined against a variety of serine proteases: human sputum elastase (HS), porcine pancreatic elastase (PPE) and human pancreatic chymotrypsin and one cysteine protease: human liver cathepsin B. In all cases a 96-well plate format protocol using colorimetric p-nitroaniline (pNA) substrate specific for each enzyme was used as described previously (Patent WO 00/09543) with some modifications to the serine protease assays. All enzymes were purchased from Sigma while the substrates were from Bachem.
(§2) Each assay included a 2 hr enzyme-inhibitor pre-incubation at room temperature followed by addition of substrate and hydrolysis to ˜30% conversion as measured on a Spectramax Pro microplate reader. Compound concentrations varied from 100 to 0.4 μM depending on their potency. […]
(§3) The percentage of inhibition was calculated using the formula: [1−((UVinh−UVblank)/(UVctl−UVblank))]×100 […]

Assay [2] has as its system human pancreatic chymotrypsin. The assay is described as follows: Specificity assay, chymotrypsin. The class given is biochemical. To be noted: 2 hr pre-incubation. As to the method:
as §1, §2, §3

T1 sequence (P00772 27-266): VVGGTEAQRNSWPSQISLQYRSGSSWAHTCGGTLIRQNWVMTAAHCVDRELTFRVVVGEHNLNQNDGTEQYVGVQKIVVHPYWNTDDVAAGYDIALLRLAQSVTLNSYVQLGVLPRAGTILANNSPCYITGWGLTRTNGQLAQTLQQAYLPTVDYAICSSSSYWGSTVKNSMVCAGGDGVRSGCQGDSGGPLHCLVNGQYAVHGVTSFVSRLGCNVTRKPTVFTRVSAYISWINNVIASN

`C=CC1C[C@]1(NC(=O)[C@@H]1C[C@@H](Oc2cc(-c3ccccc3)nc3cc(OC)ccc23)CN1C(=O)[C@@H](NC(=O)OC(C)(C)C)C(C)(C)C)C(=O)NS(=O)(=O)C1(C)CC1` (stereo in doubt) [Compound 1, (1-{4-(7-Methoxy-2-phenylquinolin-4-yloxy)-2-[1-(1-methylcyclopropanesulfonylaminocarbonyl)-2-vinylcyclopropylcarbamoyl]pyrrolidine-1-carbonyl}-2,2-dimethylpropyl)carbamic acid tert-butyl ester]: the IC50 in assay [1] and in assay [2] was greater than 100 µM in each case.

For orientation: IC50 means the point on the concentration scale where inhibition reaches its midpoint. The low end stands for higher potency, the high end for lower potency.
